From ChEMBL document CHEMBL1131751, “Design and synthesis of 2-[4-[4-(m-(ethylsulfonamido)-phenyl) piperazin-1-yl]butyl]-1,3-dioxoperhydropyrrolo[1,2-c]imidazole (EF-7412) using neural networks. A selective derivative with mixed 5-HT1A/D2 antagonist properties” (Bioorg Med Chem Lett, 1999)

Experiments:
[1] = molecular target: T1, 5-hydroxytryptamine receptor 1A (Mus musculus, UniProt Q64264); assay: Binding affinity towards 5-HT1A receptor
T1 sequence (Q64264 whole entry): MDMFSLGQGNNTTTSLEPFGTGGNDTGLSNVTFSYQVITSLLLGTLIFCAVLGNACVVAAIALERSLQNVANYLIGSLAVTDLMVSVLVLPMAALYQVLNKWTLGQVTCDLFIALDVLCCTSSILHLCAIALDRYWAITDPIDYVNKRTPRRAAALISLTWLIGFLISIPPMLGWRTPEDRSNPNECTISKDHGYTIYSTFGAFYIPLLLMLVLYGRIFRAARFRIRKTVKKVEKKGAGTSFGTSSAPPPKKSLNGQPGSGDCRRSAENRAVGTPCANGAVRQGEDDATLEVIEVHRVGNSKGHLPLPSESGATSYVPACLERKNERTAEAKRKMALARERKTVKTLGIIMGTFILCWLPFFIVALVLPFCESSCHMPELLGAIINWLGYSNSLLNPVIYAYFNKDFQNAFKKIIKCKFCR

D(2) dopamine receptor = D(2) dopamine receptor (Mus musculus, UniProt P61168); assay: Binding affinity towards Dopamine receptor D2
[2] = molecular target: T2, Alpha-1 adrenergic receptor (Mus musculus, UniProt P97714+P97717+P97718); assay: Binding affinity towards Alpha-1 adrenergic receptor; format: protein assay
T2 sequence (P97714 whole entry): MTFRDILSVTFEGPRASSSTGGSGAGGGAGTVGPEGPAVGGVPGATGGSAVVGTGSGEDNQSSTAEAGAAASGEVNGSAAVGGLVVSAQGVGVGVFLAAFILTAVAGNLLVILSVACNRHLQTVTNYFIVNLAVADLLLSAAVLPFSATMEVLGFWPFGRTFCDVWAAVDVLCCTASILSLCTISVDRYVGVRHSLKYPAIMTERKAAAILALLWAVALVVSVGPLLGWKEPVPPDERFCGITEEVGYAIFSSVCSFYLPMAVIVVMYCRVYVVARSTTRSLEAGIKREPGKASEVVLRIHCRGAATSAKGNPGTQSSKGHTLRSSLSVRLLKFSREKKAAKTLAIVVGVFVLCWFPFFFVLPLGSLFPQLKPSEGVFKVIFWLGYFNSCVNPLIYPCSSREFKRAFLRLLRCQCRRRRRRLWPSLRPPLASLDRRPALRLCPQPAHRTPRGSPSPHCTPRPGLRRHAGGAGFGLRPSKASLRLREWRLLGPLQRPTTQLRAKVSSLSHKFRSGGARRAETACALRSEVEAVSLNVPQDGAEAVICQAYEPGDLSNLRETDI
T2 sequence (P97717 whole entry): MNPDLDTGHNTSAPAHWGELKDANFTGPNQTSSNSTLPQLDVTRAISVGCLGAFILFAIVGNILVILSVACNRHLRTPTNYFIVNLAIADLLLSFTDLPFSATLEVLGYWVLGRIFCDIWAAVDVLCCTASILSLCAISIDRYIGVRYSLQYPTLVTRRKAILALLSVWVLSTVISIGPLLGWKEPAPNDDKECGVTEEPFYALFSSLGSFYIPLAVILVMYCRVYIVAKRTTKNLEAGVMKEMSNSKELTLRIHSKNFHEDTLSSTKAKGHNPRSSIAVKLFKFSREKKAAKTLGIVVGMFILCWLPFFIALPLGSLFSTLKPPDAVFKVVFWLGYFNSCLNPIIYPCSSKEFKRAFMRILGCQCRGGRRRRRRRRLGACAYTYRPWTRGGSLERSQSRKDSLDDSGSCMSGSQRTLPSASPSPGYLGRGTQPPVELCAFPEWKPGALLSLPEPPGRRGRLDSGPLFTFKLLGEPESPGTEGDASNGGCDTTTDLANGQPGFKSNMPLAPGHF
T2 sequence (P97718 whole entry): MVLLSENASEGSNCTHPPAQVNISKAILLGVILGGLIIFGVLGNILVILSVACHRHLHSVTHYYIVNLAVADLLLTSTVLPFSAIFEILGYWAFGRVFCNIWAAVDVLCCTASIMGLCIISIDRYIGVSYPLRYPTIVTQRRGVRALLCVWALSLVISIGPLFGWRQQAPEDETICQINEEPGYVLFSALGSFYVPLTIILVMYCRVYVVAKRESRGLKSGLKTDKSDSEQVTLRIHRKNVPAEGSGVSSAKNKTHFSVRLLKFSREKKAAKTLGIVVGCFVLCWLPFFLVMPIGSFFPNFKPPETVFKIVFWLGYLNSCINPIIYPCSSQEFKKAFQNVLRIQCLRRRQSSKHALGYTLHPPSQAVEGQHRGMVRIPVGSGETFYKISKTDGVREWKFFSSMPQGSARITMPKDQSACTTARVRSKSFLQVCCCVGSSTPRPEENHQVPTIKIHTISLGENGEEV

D(2) dopamine receptor, sequence (P61168 whole entry): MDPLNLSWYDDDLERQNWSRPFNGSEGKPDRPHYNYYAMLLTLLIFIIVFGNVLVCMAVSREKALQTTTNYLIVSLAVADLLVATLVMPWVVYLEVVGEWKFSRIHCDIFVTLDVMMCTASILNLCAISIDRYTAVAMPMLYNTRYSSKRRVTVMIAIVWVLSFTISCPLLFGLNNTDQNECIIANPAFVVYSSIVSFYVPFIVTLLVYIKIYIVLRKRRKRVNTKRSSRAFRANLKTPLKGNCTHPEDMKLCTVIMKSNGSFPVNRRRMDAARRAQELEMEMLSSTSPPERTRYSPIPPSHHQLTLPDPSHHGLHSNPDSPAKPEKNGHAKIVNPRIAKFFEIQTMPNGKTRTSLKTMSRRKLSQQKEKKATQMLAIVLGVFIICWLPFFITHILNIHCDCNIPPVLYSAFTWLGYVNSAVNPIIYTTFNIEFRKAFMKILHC

- Ki [1]: 27 nM
- Ki (D(2) dopamine receptor): 22 nM
- Ki [2]: > 1000 nM
SMILES: CCS(=O)(=O)Nc1cccc(N2CCN(CCCCN3C(=O)C4CCCN4C3=O)CC2)c1 (stereo not drawn)
